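Dose response: 5 concentrations. Exposure: 48 h. Format: 96-well plates. Endpoint: linear interpolation; highest concentration if not reached. GI50: concentration for 50% inhibition of growth.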 Calls of active or inactive are those of the source. Rule as the data show it: active = GI50 up to about 1.1 µM and inactive = higher.

Ten compounds from ChEMBL document CHEMBL1201862, “PubChem BioAssay data set” (2004) can be followed below.

Test in all cases: NCI anticancer screen, dose series, 48 h
The test system of assay [1] is HT-29.
For assay [2], the system named is UACC-62.
Assay [3] concerns HCT-116.
Assay [4] relates to CCRF-CEM.
The subject of assay [5] is OVCAR-8.
Assay [6] concerns SNB-19.
In assay [7] the test system is K562.
Assay [8] deals with SK-OV-3.
Assay [9] has as its system MOLT-4.
Assay [10] has as its system SF-539.
Assay [11] relates to RXF 393.
Assay [12] has as its system OVCAR-5.
The subject of assay [13] is LOX IMVI.
Assay [14] has as its system 786-0.
Assay [15] deals with NCI-H460.
The subject of assay [16] is SF-268.
The subject of assay [17] is NCI-H226.
Assay [18] has as its system TK-10.
Assay [19] deals with PC-3.
In assay [20] the test system is T47D.

For `CN(/N=C/C=N/N(C)C1=NCCCCN1)C1=NCCCCN1`, the GI50 in [1], in assay [2], in [3], in assay [4], in [5] and in [6] was > 100 µM (inactive) each time. The GI50 in assay [7], in [8], in assay [9], in [10], in [11] and in [12] was > 100 µM (inactive) throughout. For the same compound, the GI50 in assay [13], in [14], in assay [15], in [16], in [17] and in [18] was > 100 µM (inactive) throughout. Further, the GI50 in assay [19] and in assay [20] was > 100 µM (inactive) throughout.
On to `C#CCn1ncc2c(SC)ncnc21`, for which the GI50 in assay [1], in assay [2], in [3], in [4], in assay [5] and in [6] was > 100 µM (inactive) in each case. Also, the GI50 in assay [7], in assay [8], in assay [9], in assay [10], in [11] and in assay [12] was > 100 µM (inactive) in each case. The GI50 in [13], in [14], in assay [15], in assay [16], in [17] and in assay [18] was > 100 µM (inactive) each time. Further, the results for the GI50 in assay [19] and in assay [20] were > 100 µM (inactive) and 19 µM (inactive), respectively.
As for `N#CC1=C(N)OC2=C(CCCc3ccccc32)C1c1ccc([N+](=O)[O-])cc1` (stereo not given), the GI50 was 12.2 µM (inactive) in assay [1]; 11.2 µM (inactive) in assay [2]; 12.8 µM (inactive) in assay [3]; 4.52 µM (inactive) in assay [4]; 17.9 µM (inactive) in assay [5]; 17.3 µM (inactive) in [6]. For the same compound, the GI50 is 2.07 µM (inactive) in assay [7]; 30.9 µM (inactive) in assay [8]; 0.336 µM (active) in assay [9]; 19.2 µM (inactive) in [10]; 13.2 µM (inactive) in [11]; 21.8 µM (inactive) in [12]. Also, the GI50 in assay [13] is 19.1 µM (inactive); in [14], 18.1 µM (inactive); in assay [15] it was 17.7 µM (inactive); in assay [16], 15.1 µM (inactive); in [17] it was 24.7 µM (inactive); in assay [18] it was 28.8 µM (inactive). Also, the GI50 in [19] is 17.1 µM (inactive); in assay [20] it was 8.18 µM (inactive).
As to `COc1ccc(-c2nc(N3CCCC3)no2)cc1`, the GI50 in assay [1] is 54.7 µM (inactive); in assay [2], 31 µM (inactive); in assay [3], > 91.8 µM (inactive); in [4], 20.7 µM (inactive); in [5], 34.5 µM (inactive); in [6] it was 44.1 µM (inactive). The GI50 was 60.3 µM (inactive) in assay [7]; 58.9 µM (inactive) in [8]; > 100 µM (inactive) in assay [9]; 24 µM (inactive) in [10]; 22 µM (inactive) in assay [11]; > 86.7 µM (inactive) in assay [12]. The GI50 in [13] was 33 µM (inactive); in assay [14], 36.3 µM (inactive); in assay [15] it was 33 µM (inactive); in assay [16] it was 53 µM (inactive); in [17] it was 42.7 µM (inactive); in assay [18], > 100 µM (inactive). Also, the GI50 is 41.6 µM (inactive) in [19] and 26.5 µM (inactive) in [20].
On to `Cc1c(C(C)C)cc(OCCO)cc1C(C)C`, for which the GI50 was 26.6 µM (inactive) in [1]; 40.6 µM (inactive) in assay [2]; 31.3 µM (inactive) in assay [3]; 35.4 µM (inactive) in [4]; 42.3 µM (inactive) in assay [5]; 66.2 µM (inactive) in assay [6]. The GI50 in [7] is 41.7 µM (inactive); in assay [8], > 100 µM (inactive); in assay [9] it was 34.1 µM (inactive); in assay [10] it was 55.5 µM (inactive); in [11] it was 16.6 µM (inactive); in assay [12], 66.4 µM (inactive). In addition, the GI50 in assay [13] was 24.9 µM (inactive); in assay [14] it was 24.4 µM (inactive); in [15] it was 36.4 µM (inactive); in assay [16], 35.5 µM (inactive); in [17], 34.8 µM (inactive); in assay [18], > 100 µM (inactive). Further, the GI50 was 30.8 µM (inactive) in [19] and 26.9 µM (inactive) in assay [20].
For `N=C(N)N/N=C/c1cnn(C(=N)N)c1`, the GI50 in [1], in [2], in [3], in assay [4], in assay [5] and in [6] was > 100 µM (inactive) in each case. The GI50 in [7], in assay [8], in [9], in assay [10], in assay [11] and in [12] was > 100 µM (inactive) each time. In addition, the GI50 in [13], in assay [14], in assay [15], in assay [16], in assay [17] and in assay [18] was > 100 µM (inactive) in each case. The GI50 in assay [19] was 31.4 µM (inactive); in [20], > 100 µM (inactive).
As for `N#CC(NNC(=O)Cc1ccccc1)c1c(O)ccc2ccccc12` (stereo not given), the GI50 in [1] is 11.3 µM (inactive); in assay [2], 3.08 µM (inactive); in assay [3], 3.46 µM (inactive); in assay [4], 1.2 µM (inactive); in assay [5], 4.17 µM (inactive); in [6] it was 9.79 µM (inactive). Moreover, the GI50 in assay [7] is 3.69 µM (inactive); in assay [8] it was 4.84 µM (inactive); in [9] it was 2.23 µM (inactive); in assay [10] it was 4.16 µM (inactive); in assay [11], 7 µM (inactive); in assay [12] it was 13.9 µM (inactive). Besides, the GI50 in assay [13] was 1.47 µM (inactive); in assay [14], 4.6 µM (inactive); in assay [15], 4.25 µM (inactive); in assay [16] it was 3.45 µM (inactive); in [17] it was 18.4 µM (inactive); in assay [18], 20.3 µM (inactive). Further, the GI50 in assay [19] was 5.33 µM (inactive); in assay [20] it was 3.45 µM (inactive).
In the case of `CC(=O)c1c(C)cc2cccc(OC3OC(CO)C(O)C(O)C3O)c2c1O.CC1OC(O)C(O)C(O)C1O` (stereo not given), the GI50 in assay [1], in assay [2], in assay [3], in assay [4], in assay [5] and in assay [6] was > 100 µM (inactive) in each case. Also, the GI50 in [7], in assay [8], in assay [9], in [10], in [11] and in [12] was > 100 µM (inactive) in each case. Besides, the GI50 in assay [13], in [14], in assay [15], in [16], in [17] and in assay [18] was > 100 µM (inactive) throughout. The GI50 in [19] and in assay [20] was > 100 µM (inactive) in each case.
`Cc1ccc2c(c1)C(C1Cc3c(C)cccc3C1=O)OC2=O` (stereo not given): the GI50 in assay [1] is 96.6 µM (inactive); in assay [2] it was > 100 µM (inactive); in [3] it was > 100 µM (inactive); in assay [4] it was > 100 µM (inactive); in assay [5], > 100 µM (inactive); in assay [6] it was > 100 µM (inactive). The GI50 in assay [7] was > 100 µM (inactive); in assay [8], > 100 µM (inactive); in assay [9] it was > 100 µM (inactive); in assay [10], 95.5 µM (inactive); in assay [11], 55.3 µM (inactive); in assay [12], > 100 µM (inactive). The GI50 in assay [13] was > 100 µM (inactive); in assay [14], > 100 µM (inactive); in assay [15] it was > 100 µM (inactive); in assay [16] it was > 100 µM (inactive); in [17], 61.5 µM (inactive); in assay [18], > 100 µM (inactive). Also, the GI50 in assay [19] and in assay [20] was > 100 µM (inactive) throughout.
Take `COc1ccc(/C=C/C(=O)/C=C/c2ccc(OC)cc2OC)c(OC)c1`: the GI50 is 2.64 µM (inactive) in [1]; 5.6 µM (inactive) in assay [2]; 4.34 µM (inactive) in assay [3]; 2.92 µM (inactive) in [4]; 11.6 µM (inactive) in [5]; 12.6 µM (inactive) in assay [6]. The GI50 in assay [7] is 2.79 µM (inactive); in [8], 7.35 µM (inactive); in assay [9], 4.8 µM (inactive); in assay [10], 15.8 µM (inactive); in assay [11], 3.24 µM (inactive); in assay [12], 4.01 µM (inactive). For the same compound, the GI50 in assay [13] is 3.63 µM (inactive); in assay [14], 5.81 µM (inactive); in assay [15] it was 5.08 µM (inactive); in assay [16], 4.55 µM (inactive); in assay [17] it was 12.9 µM (inactive); in assay [18], 14.5 µM (inactive). Also, the GI50 is 12.2 µM (inactive) in [19] and 4.47 µM (inactive) in assay [20].
